Assay results published in US7094895B2, “Tyrosyl derivatives and their use as P2X7 receptor modulators” (King Pharmaceuticals Research & Development, Inc., priority 2001, dated 2006).

Legend:
[1] = target: T1, P2X7 receptor (Homo sapiens, UniProt Q99572); experiment: Inhibition of ATP-induced calcium influx in human monocytes (fura-2/AM); type: cell-based; set-up: endogenous in cells; host or cells: human monocytes; settings: inhibiting calcium influx in human monocytes in the presence of 1 mM ATP; read-out: P2X7 Antagonist Activity IC50
T1 sequence (Q99572 1-595): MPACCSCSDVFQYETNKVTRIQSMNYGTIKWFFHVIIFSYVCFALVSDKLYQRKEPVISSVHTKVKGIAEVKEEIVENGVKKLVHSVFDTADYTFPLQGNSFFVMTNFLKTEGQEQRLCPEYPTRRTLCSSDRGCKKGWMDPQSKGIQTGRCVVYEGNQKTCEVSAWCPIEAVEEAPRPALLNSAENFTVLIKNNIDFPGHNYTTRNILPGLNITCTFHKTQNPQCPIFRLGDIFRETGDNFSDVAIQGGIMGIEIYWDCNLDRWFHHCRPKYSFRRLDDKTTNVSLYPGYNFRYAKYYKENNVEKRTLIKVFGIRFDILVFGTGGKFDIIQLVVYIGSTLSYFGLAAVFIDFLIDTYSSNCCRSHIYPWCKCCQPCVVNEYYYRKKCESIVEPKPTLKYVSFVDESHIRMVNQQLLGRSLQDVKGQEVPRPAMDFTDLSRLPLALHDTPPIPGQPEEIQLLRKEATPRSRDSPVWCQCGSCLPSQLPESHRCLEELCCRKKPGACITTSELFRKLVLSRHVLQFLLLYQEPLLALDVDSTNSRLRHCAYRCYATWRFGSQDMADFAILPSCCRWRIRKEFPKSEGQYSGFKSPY
Protocol: Table 1 illustrates the IC50 values for compounds toward inhibiting calcium influx in human monocytes in the presence of 1 mM ATP.
Ca^2+ measurements. Changes in Ca^2+ were measured with the fluorescent indicator fura-2/AM (Molecular Probes, Inc., Eugene, Oreg.) as described previously.^32 Briefly, cells were loaded with […] of fura-2/AM and incubated in a thermostat-controlled (37° C.) and magnetically stirred fluorometer cuvette (model LS50, Perkin-Elmer Ltd., Beaconsfield, UK). Intracellular Ca^2+ concentration was determined with the 340/380 excitation ratio at an emission wavelength of 500 nm. All experiments were repeated three times.

[2] = system: Adriamycin-resistant cells (HL-60); settings: KN62 2 μM (non-cytotoxic), Adriamycin-resistant HL-60 cells; cited from earlier work
[3] = target: T1, P2X7 receptor; settings: at the concentration of 500 nM; cited from earlier work

Compound	IC50 [1]	enhancement of VP-16 induced topoisomerase II-mediated DNA cleavable complex formation [2]	inhibition of the P2X7 receptor [3]
1-[(S)-N,O-bis-(isoquinolinesulfonyl)-N-methyl-tyrosyl]-4-(pyridin-2-yl)-piperazine	170 nM		
1-[(S)-N,O-bis-(isoquinolinesulfonyl)-N-methyl-tyrosyl]-4-(2-methoxy-phenyl)-piperazine	84.1 nM		
Cc1ccccc1N1CCN(C(=O)[C@H](Cc2ccc(OS(=O)(=O)c3cccnc3)cc2)N(C)S(=O)(=O)c2cccnc2)CC1 [1-[(S)-N,O-bis-(3-pyridinesulfonyl)-N-methyl-tyrosyl]-4-(2-methylphenyl)-piperazine]	9120 nM		
1-[(S)-N,O-bis-(isoquinolinesulfonyl)-N-methyl-tyrosyl]-4-(4-fluorophenyl)-piperazine	1.33 nM		
1-[(S)-N,O-bis-(isoquinolinesulfonyl)tyrosyl]-4-(o-tolyl)-piperazine	28.8 nM		
1-[(S)-N,O-bis-(isoquinolinesulfonyl)-N-methyl-tyrosyl]-4-(p-tolyl)-piperazine	13.5 nM		
CN([C@@H](Cc1ccc(OS(=O)(=O)c2cccc3cnccc23)cc1)C(=O)N1CCN(c2ccc(Cl)cc2)CC1)S(=O)(=O)c1cccc2cnccc12 [1-[(S)-N,O-bis-(isoquinolinesulfonyl)-N-methyl-tyrosyl]-4-(4-chlorophenyl)-piperazine]]	105 nM		
1-[(S)-N,O-bis-(isoquinolinesulfonyl)-N-methyl-tyrosyl]-4-(2,3-dimethylphenyl)-piperazine	1120 nM		
1-[(S)-N,O-bis-(isoquinolinesulfonyl)-N-methyl-tyrosyl]-4-(4-aminophenyl)-piperazine	101 nM		
1-[(S)-N,O-bis-(isoquinolinesulfonyl)-N-methyl-tyrosyl]-4-(3-trifluoromethyl-phenyl)-piperazine	31.1 nM		
CN([C@@H](Cc1ccc(OS(=O)(=O)c2cccc3cnccc23)cc1)C(=O)N1CCN(c2ccc(I)cc2)CC1)S(=O)(=O)c1cccc2cnccc12 [1-[(S)-N,O-bis-(isoquinolinesulfonyl)-N-methyl-tyrosyl]-4-(4-iodophenyl)-piperazine]]	176 nM		
1-[(S)-N,O-bis-(isoquinolinesulfonyl)tyrosyl]-4-(4-fluorophenyl)-piperazine	6.02 nM		
1-[(S)-N,O-bis-(isoquinolinesulfonyl)-N-methyl-tyrosyl]-4-(4-nitrophenyl)-piperazine	5.76 nM		
1-[(S)-N,O-bis-(isoquinolinesulfonyl)-N-methyl-tyrosyl]-4-benzylpiperidine	65.3 nM		
1-[(S)-N,O-bis-(isoquinolinesulfonyl)-N-methyl-tyrosyl]-4-(2-chlorophenyl)-piperazine	15.8 nM		
1-[(S)-N,O-bis-(isoquinolinesulfonyl)-N-methyl-tyrosyl]-4-(3-chlorophenyl)-piperazine	14.1 nM		
1-[(S)-N,O-bis-(isoquinolinesulfonyl)-N-methyl-tyrosyl]-4-(4-methoxy-phenyl)-piperazine	132 nM		
CN([C@@H](Cc1ccc(OS(=O)(=O)c2cccc3cnccc23)cc1)C(=O)N1CCN(c2ccccc2)CC1)S(=O)(=O)c1cccc2cnccc12 [KN62, 1-N,0-(bis(1,5-isoquinolinesulfonyl)-N-methyl-L-tyrosyl)-4-phenylpiperazine]	51 nM	2- to 4 fold	complete inhibition
CC(=O)c1ccc(N2CCN(C(=O)[C@H](Cc3ccc(OS(=O)(=O)c4cccc5cnccc45)cc3)N(C)S(=O)(=O)c3cccc4cnccc34)CC2)cc1 [1-[(S)-N,O-bis-(isoquinolinesulfonyl)-N-methyl-tyrosyl]-4-(4-acetylphenyl)-piperazine]]	70.8 nM		
1-[(S)-N,O-bis-(isoquinolinesulfonyl)-N-methyl-tyrosyl]-4-phenethyl-piperazine	600 nM		

Further compounds by falling IC50 [1], results first:

IC50 [1]	Compound	enhancement of VP-16 induced topoisomerase II-mediated DNA cleavable complex formation [2]	inhibition of the P2X7 receptor [3]
955 nM	CN([C@@H](Cc1ccc(OS(=O)(=O)c2cccnc2)cc1)C(=O)N1CCN(c2ccccc2)CC1)S(=O)(=O)c1cccnc1 [1-[(S)-N,O-bis-(3-pyridinesulfonyl)-N-methyl-tyrosyl]-4-phenyl-piperazine]		
380 nM	CN([C@@H](Cc1ccc(OS(=O)(=O)c2cccc3cnccc23)cc1)C(=O)N1CCN(C(=O)c2ccc(F)cc2)CC1)S(=O)(=O)c1cccc2cnccc12 [1-[(S)-N,O-bis-(isoquinolinesulfonyl)-N-methyl-tyrosyl]-4-(4-fluorobenzoyl)-piperazine]]		
97.7 nM	CN([C@@H](Cc1ccc(OS(=O)(=O)c2cccc3cnccc23)cc1)C(=O)N1CCN(c2ccc(C#N)cc2)CC1)S(=O)(=O)c1cccc2cnccc12 [1-[(S)-N,O-bis-(isoquinolinesulfonyl)-N-methyl-tyrosyl]-4-(4-cyanophenyl)-piperazine]]		
79.8 nM	1-[(S)-N,O-bis-(isoquinolinesulfonyl)-N-methyl-tyrosyl]-4-(pyrimidin-2-yl)-piperazine		
33.9 nM	1-[(S)-N,O-bis-(isoquinolinesulfonyl)-N-methyl-tyrosyl]-4-(3,4-dichloro-phenyl)-piperazine		
21 nM	1-[(S)-N,O-bis-(isoquinolinesulfonyl)-N-methyl-tyrosyl]-4-benzylpiperazine		
18.5 nM	CN([C@@H](Cc1ccc(OS(=O)(=O)c2cccc3cnccc23)cc1)C(=O)N1CCN(c2ccccc2F)CC1)S(=O)(=O)c1cccc2cnccc12 [1-[(S)-N,O-bis-(isoquinolinesulfonyl)-N-methyl-tyrosyl]-4-(2-fluorophenyl)-piperazine]]		
15.1 nM	1-[(S)-N,O-bis-(isoquinolinesulfonyl)-N-methyl-tyrosyl]-4-o-tolyl-piperazine		
12.3 nM	CN([C@@H](Cc1ccc(OS(=O)(=O)c2cccc3cnccc23)cc1)C(=O)N1CCN(Cc2ccc([N+](=O)[O-])cc2)CC1)S(=O)(=O)c1cccc2cnccc12 [1-[(S)-N,O-bis-(isoquinolinesulfonyl)-N-methyl-tyrosyl]-4-(4-nitrobenzyl)-piperazine]]		
5.8 nM	CN([C@@H](Cc1ccc(OS(=O)(=O)c2cccc3cnccc23)cc1)C(=O)N1CCN(Cc2ccc(F)cc2)CC1)S(=O)(=O)c1cccc2cnccc12 [1-[(S)-N,O-bis-(isoquinolinesulfonyl)-N-methyl-tyrosyl]-4-(4-fluorobenzyl)-piperazine]]		
